# Patent US20220354847A1, “THIAMINE THERAPY FOR FATTY LIVER ASSOCIATED DISEASES” (priority 2019, published 2022)
# Columns and labels:
# hepatic steatosis = conditions: literature (Biomedical Reports 2013; Journal of Hepatology 2016); cited from earlier work
# liver histology = conditions: literature, cited from earlier work; for associated adverse effects: long-term treatment
# [1] = test system: hepatic alterations caused by a high-fat diet; conditions: mice; literature; cited from earlier work
# [2] = test system: lambs grown on the HC diet; conditions: within one week of treatment; saline-treated HC group 77.2 mg/dL
# [3] = test system: circulating leukocytes gene expression; conditions: FIG. 14A
# [4] = test system: hepatic steatosis in lambs grown on the HC diet
compound,measurement,setting,value
N[C@@H](CC(=O)N1CCn2c(nnc2C(F)(F)F)C1)Cc1cc(F)c(F)cc1F [Sitagliptin],effect on hepatic steatosis / liver fat,hepatic steatosis,ineffective
CN(C)C(=N)N=C(N)N [metformin],effect on hepatic steatosis / liver fat,hepatic steatosis,no effect
CCc1ccc(CCOc2ccc(CC3SC(=O)NC3=O)cc2)nc1 (stereo not drawn) [pioglitazone],associated adverse effects,liver histology,weight gain
O=C1CCC(N2C(=O)c3ccccc3C2=O)C(=O)N1 (stereo not drawn) [thalidomide],hepatic alterations caused by a high-fat diet,[1],improvements
Cc1ncc(C[n+]2csc(CCO)c2C)c(N)n1 [thiamine],blood glucose levels,[2],71.7 mg/dL
same,liver expression of APOB,liver gene expression; FIG. 13C,No effects
same,"liver expression of the energy-sensing axis and of the transporters of NEFA (CD36, SLC27A6, SLC27A5)",liver gene expression; FIG. 13D,No effect
same,"liver gene expression of NFKB1, IL1B, CCL2 and IL8",liver gene expression; FIG. 14B,No significant alterations
same,liver expression of catalase,liver gene expression; FIG. 14C,did not affect
same,liver expression of TNF,"liver gene expression; P=0.005, FIG. 14B",lowered
same,liver expression of superoxide dismutase 2 (SOD2),"liver gene expression; P=0.02, FIG. 14C",increase
same,"liver expression of genes coding for AMPK (PRKAA2), PGC-1α (PPARGC1A) and PPAR-α (PPARA)",liver gene expression; THC vs HC,did not affect
same,Perilipin 2 transcripts in liver,"liver gene expression; THC vs HC, P=0.002, FIG. 13C",lowered Perilipin 2 transcripts substantially
same,liver expression of SIRT1,"liver gene expression; between the treatments, FIG. 13A",not different
same,abundance of MTTP transcripts in liver,"liver gene expression; compared with untreated HC group, P=0.001",increased
same,liver expression of glutathione peroxidase 1 (GPX1),liver gene expression; in vivo,no detected treatment effects
same,inflammatory state increased by the HC diet (proinflammatory gene expression),"liver gene expression; leukocyte and liver, FIG. 14 legend",partially alleviated
same,"leukocyte expression of IL1B, TNF and IFNG",[3],No treatment effects
same,leukocyte expression of CXCL8,"[3]; thiamine-treated animals, P=0.05",lower expression
same,"hepatocellular steatosis (macro-vesicular or micro-vesicular, histology score 0 to 3)","[4]; HC vs LC and THC, FIG. 11B, 11D",significantly increased in the HC compared to both the LC and THC groups
same,"hepatic steatosis (liver fat content, percentage of wet liver weight)","[4]; THC group, HC diet + thiamine 300 mg/animal s.c. 3 then 5 times a week for the last 85 of 135 days, HC=8.1%, LC 3.8%, P<0.0001",4.8%
same,hepatic index (liver weight/BW),"[4]; THC vs HC, FIG. 11C",no significant effect
vitamin E,effect on liver histology,liver histology; biopsy-proven NASH patients,improve liver histology
same,associated adverse effects,liver histology,modest increase in the risk for prostate cancer
